Drawing on US8916573B2, “Quinazoline-2,4-dione derivatives” (Actelion Pharmaceuticals Ltd., priority 2011, dated 2014), this text covers MIC for 28 compounds.

Values after ≈ are worked out from the molar mass of the structure shown.

In this assay the test system is S. aureus 29213. The assay is described as follows: Bacterial growth minimal inhibitory concentrations (microdilution, cation-adjusted Mueller-Hinton Broth, CLSI M7-A7). Particulars: Staphylococcus aureus, 29213; microdilution in cation-adjusted Mueller-Hinton Broth. In kind it is cell-based. On the procedure:
Bacterial Growth Minimal Inhibitory Concentrations: Minimal inhibitory concentrations (MICs; mg/l) were determined in cation-adjusted MuellerHinton Broth by a microdilution method following the description given in “Methods for Dilution Antimicrobial Susceptibility Tests for Bacteria that Grow Aerobically”, Approved standard, 7th ed., Clinical and Laboratory Standards Institute (CLSI) Document M7-A7, Wayne, Pa., USA, 2006. Typical antibacterial test results are given in Table 1 hereafter (MIC in mg/l).
`O=C1CSc2ccc(N3C[C@@H](CCCn4c(=O)[nH]c5cccc(F)c5c4=O)OC3=O)cc2N1` [Example 17, 5-fluoro-3-{3-[(R)-2-oxo-3-(3-oxo-3,4-dihydro-2H-benzo[1,4]thiazin-6-yl)-oxazolidin-5-yl]-propyl}-1H-quinazoline-2,4-dione]: the MIC was 0.125 µg/mL (≈ 0.266 µM).
Compound `O=C1CSc2ccc(N3C[C@H](CCCn4c(=O)[nH]c5cccc(Cl)c5c4=O)OC3=O)cc2N1` [Example 18, 5-chloro-3-{3-[(S)-2-oxo-3-(3-oxo-3,4-dihydro-2H-benzo[1,4]thiazin-6-yl)-oxazolidin-5-yl]-propyl}-1H-quinazoline-2,4-dione] yielded an MIC not above 0.016 µg/mL.
On to `O=C1CSc2ccc(N3C[C@H](CCCn4c(=O)[nH]c5cccc(Cl)c5c4=O)OC3=O)nc2N1` [Example 19, 5-chloro-3-{3-[(S)-2-oxo-3-(3-oxo-3,4-dihydro-2H-pyrido[3,2-b][1,4]thiazin-6-yl)-oxazolidin-5-yl]-propyl}-1H-quinazoline-2,4-dione], for which the MIC is not above 0.016 µg/mL.
The same measure for `O=C1COc2ccc(N3C[C@@H](CCCn4c(=O)[nH]c5cccc(Cl)c5c4=O)OC3=O)nc2N1` [Example 20, 5-chloro-3-{3-[(R)-2-oxo-3-(3-oxo-3,4-dihydro-2H-pyrido[3,2-b][1,4]oxazin-6-yl)-oxazolidin-5-yl]-propyl}-1H-quinazoline-2,4-dione]: 0.125 µg/mL (≈ 0.265 µM); for `O=C1CSc2ccc(N3C[C@@H](CCCn4c(=O)[nH]c5c(Cl)cccc5c4=O)OC3=O)cc2N1` [Example 21, 8-chloro-3-{3-[(R)-2-oxo-3-(3-oxo-3,4-dihydro-2H-benzo[1,4]thiazin-6-yl)-oxazolidin-5-yl]-propyl}-1H-quinazoline-2,4-dione]: not above 0.016 µg/mL.
In the case of `O=C1CSc2ccc(N3C[C@H](CCCn4c(=O)[nH]c5c(Cl)cccc5c4=O)OC3=O)nc2N1` [Example 22, 8-chloro-3-{3-[(S)-2-oxo-3-(3-oxo-3,4-dihydro-2H-pyrido[3,2-b][1,4]thiazin-6-yl)-oxazolidin-5-yl]-propyl}-1H-quinazoline-2,4-dione], the MIC is not above 0.016 µg/mL.
As for `O=C1COc2ccc(N3C[C@@H](CCCn4c(=O)[nH]c5c(Cl)cccc5c4=O)OC3=O)nc2N1` [Example 23, 8-chloro-3-{3-[(R)-2-oxo-3-(3-oxo-3,4-dihydro-2H-pyrido[3,2-b][1,4]oxazin-6-yl)-oxazolidin-5-yl]-propyl}-1H-quinazoline-2,4-dione], the figure is 0.031 µg/mL (≈ 0.0657 µM).
The compound `O=C1COc2ccc(N3C[C@H](CCCn4c(=O)[nH]c5c(Cl)cccc5c4=O)OC3=O)nc2N1` [Example 24, 8-chloro-3-{3-[(S)-2-oxo-3-(3-oxo-3,4-dihydro-2H-pyrido[3,2-b][1,4]oxazin-6-yl)-oxazolidin-5-yl]-propyl}-1H-quinazoline-2,4-dione] showed an MIC not above 0.016 µg/mL.
The same measure for `O=C1CSc2ccc(N3C[C@@H](CCCn4c(=O)[nH]c5ccc(Cl)cc5c4=O)OC3=O)cc2N1` [Example 25, 6-chloro-3-{3-[(R)-2-oxo-3-(3-oxo-3,4-dihydro-2H-benzo[1,4]-thiazin-6-yl)-oxazolidin-5-yl]-propyl}-1H-quinazoline-2,4-dione]: 0.063 µg/mL (≈ 0.129 µM).
The compound `O=C1CSc2ccc(N3C[C@@H](CCCn4c(=O)[nH]c5ccc(F)cc5c4=O)OC3=O)cc2N1` [Example 26, 6-fluoro-3-{3-[(R)-2-oxo-3-(3-oxo-3,4-dihydro-2H-benzo[1,4]thiazin-6-yl)-oxazolidin-5-yl]-propyl}-1H-quinazoline-2,4-dione] gave an MIC of 0.031 µg/mL (≈ 0.0659 µM). This MIC lies about 2-fold lower than the previous one.
As for `O=C1CSc2ccc(N3C[C@@H](CCCn4c(=O)[nH]c5cc(Cl)ccc5c4=O)OC3=O)cc2N1` [Example 27, 7-chloro-3-{3-[(R)-2-oxo-3-(3-oxo-3,4-dihydro-2H-benzo[1,4]-thiazin-6-yl)-oxazolidin-5-yl]-propyl}-1H-quinazoline-2,4-dione], it took 0.063 µg/mL (≈ 0.129 µM) to inhibit growth (MIC).
As for `O=C1CSc2ccc(N3C[C@@H](CCCn4c(=O)[nH]c5cc(F)ccc5c4=O)OC3=O)cc2N1` [Example 28, 7-fluoro-3-{3-[(R)-2-oxo-3-(3-oxo-3,4-dihydro-2H-benzo[1,4]thiazin-6-yl)-oxazolidin-5-yl]-propyl}-1H-quinazoline-2,4-dione], the figure is 0.063 µg/mL (≈ 0.134 µM); as for `O=C1CSc2ccc(N3C[C@H](CCCn4c(=O)[nH]c5c(Cl)cccc5c4=O)OC3=O)cc2N1` [Example 29, 8-chloro-3-{3-[(S)-2-oxo-3-(3-oxo-3,4-dihydro-2H-benzo[1,4]-thiazin-6-yl)-oxazolidin-5-yl]-propyl}-1H-quinazoline-2,4-dione], not above 0.016 µg/mL.
The same measure for `Cn1c(=O)n(CCNCC[C@@H]2CN(c3ccc4c(c3)NC(=O)CS4)C(=O)O2)c(=O)c2cccc(Cl)c21` [Example 30, 8-chloro-1-methyl-3-(2-{2-[(R)-2-oxo-3-(3-oxo-3,4-dihydro-2H-benzo[1,4]thiazin-6-yl)-oxazolidin-5-yl]-ethylamino}-ethyl)-1H-quinazoline-2,4-dione]: 0.125 µg/mL (≈ 0.236 µM); for `Cn1c(=O)n(CCC[C@H]2CN(c3ccc4c(c3)NC(=O)CS4)C(=O)O2)c(=O)c2cccc(Cl)c21` [Example 31, 8-chloro-1-methyl-3-{3-[(S)-2-oxo-3-(3-oxo-3,4-dihydro-2H-benzo[1,4]thiazin-6-yl)-oxazolidin-5-yl]-propyl}-1H-quinazoline-2,4-dione]: not above 0.016 µg/mL.
The same measure for `O=C1CSc2ccc(N3C[C@@H](CCCn4c(=O)[nH]c5c(F)cccc5c4=O)OC3=O)cc2N1` [Example 32, 8-fluoro-3-{3-[(R)-2-oxo-3-(3-oxo-3,4-dihydro-2H-benzo[1,4]thiazin-6-yl)-oxazolidin-5-yl]-propyl}-1H-quinazoline-2,4-dione]: 0.031 µg/mL (≈ 0.0659 µM).
`COc1cccc2[nH]c(=O)n(CCC[C@@H]3CN(c4ccc5c(c4)NC(=O)CS5)C(=O)O3)c(=O)c12` [Example 33, 5-methoxy-3-{3-[(R)-2-oxo-3-(3-oxo-3,4-dihydro-2H-benzo[1,4]-thiazin-6-yl)-oxazolidin-5-yl]-propyl}-1H-quinazoline-2,4-dione] came in with an MIC of 0.125 µg/mL (≈ 0.259 µM). This MIC is about 4-fold higher than that of the compound before.
The same measure for `COc1ccc2[nH]c(=O)n(CCC[C@@H]3CN(c4ccc5c(c4)NC(=O)CS5)C(=O)O3)c(=O)c2c1` [Example 34, 6-methoxy-3-{3-[(R)-2-oxo-3-(3-oxo-3,4-dihydro-2H-benzo[1,4]-thiazin-6-yl)-oxazolidin-5-yl]-propyl}-1H-quinazoline-2,4-dione]: 0.063 µg/mL (≈ 0.131 µM); for `COc1ccc2c(=O)n(CCC[C@H]3CN(c4ccc5c(c4)NC(=O)CS5)C(=O)O3)c(=O)[nH]c2c1` [Example 35, 7-methoxy-3-{3-[(S)-2-oxo-3-(3-oxo-3,4-dihydro-2H-benzo[1,4]-thiazin-6-yl)-oxazolidin-5-yl]-propyl}-1H-quinazoline-2,4-dione]: 0.125 µg/mL (≈ 0.259 µM); for `COc1cccc2c(=O)n(CCC[C@@H]3CN(c4ccc5c(c4)NC(=O)CS5)C(=O)O3)c(=O)[nH]c12` [Example 36, 8-methoxy-3-{3-[(R)-2-oxo-3-(3-oxo-3,4-dihydro-2H-benzo[1,4]-thiazin-6-yl)-oxazolidin-5-yl]-propyl}-1H-quinazoline-2,4-dione]: 0.031 µg/mL (≈ 0.0642 µM).
For `O=C1CSc2ccc(N3C[C@H](CCCn4c(=O)[nH]c5ccc(N6CCCC6)cc5c4=O)OC3=O)cc2N1` [Example 37, 3-{3-[(S)-2-oxo-3-(3-oxo-3,4-dihydro-2H-benzo[1,4]-thiazin-6-yl)-oxazolidin-5-yl]-propyl}-6-pyrrolidin-1-yl-1H-quinazoline-2,4-dione], the MIC was found to be 0.5 µg/mL (≈ 0.959 µM). This MIC is about 16-fold higher than that of the compound before.
As for `O=C1CSc2ccc(N3C[C@@H](CCCn4c(=O)[nH]c5cc(F)c(F)cc5c4=O)OC3=O)cc2N1` [Example 38, 6,7-difluoro-3-{3-[(R)-2-oxo-3-(3-oxo-3,4-dihydro-2H-benzo[1,4]thiazin-6-yl)-oxazolidin-5-yl]-propyl}-1H-quinazoline-2,4-dione], the figure is 0.063 µg/mL (≈ 0.129 µM).
On to `COc1cc2[nH]c(=O)n(CCC[C@@H]3CN(c4ccc5c(c4)NC(=O)CS5)C(=O)O3)c(=O)c2cc1OC` [Example 39, 6,7-dimethoxy-3-{3-[(R)-2-oxo-3-(3-oxo-3,4-dihydro-2H-benzo[1,4]thiazin-6-yl)-oxazolidin-5-yl]-propyl}-1H-quinazoline-2,4-dione], for which the MIC was found to be 0.25 µg/mL (≈ 0.488 µM).
The same measure for `O=C1CSc2ccc(N3C[C@H](CCCn4c(=O)[nH]c5c(Cl)ccc(Cl)c5c4=O)OC3=O)cc2N1` [Example 40, 5,8-dichloro-3-{3-[(S)-2-oxo-3-(3-oxo-3,4-dihydro-2H-benzo[1,4]thiazin-6-yl)-oxazolidin-5-yl]-propyl}-1H-quinazoline-2,4-dione]: not above 0.016 µg/mL.
In turn, `O=C1CSc2ccc(N3C[C@@H](CCCn4c(=O)c5cccc6c5n(c4=O)CCC6)OC3=O)cc2N1` [Example 41, 2-{3-[(R)-2-oxo-3-(3-oxo-3,4-dihydro-2H-benzo[1,4]thiazin-6-yl)-oxazolidin-5-yl]-propyl}-6,7-dihydro-5H-pyrido[3,2,1-ij]quinazoline-1,3-dione] displayed an MIC of 0.25 µg/mL (≈ 0.508 µM).
As for `O=C1CSc2ccc(N3C[C@H](CCCn4c(=O)[nH]c5cc6ccccc6cc5c4=O)OC3=O)cc2N1` [Example 42, 3-{3-[(S)-2-oxo-3-(3-oxo-3,4-dihydro-2H-benzo[1,4]-thiazin-6-yl)-oxazolidin-5-yl]-propyl}-1H-benzo[g]quinazoline-2,4-dione], the figure is 0.031 µg/mL (≈ 0.0617 µM); as for `COc1c(F)c(F)cc2c(=O)n(CCC[C@H]3CN(c4ccc5c(c4)NC(=O)CS5)C(=O)O3)c(=O)n(C3CC3)c12` [Example 43, 1-cyclopropyl-6,7-difluoro-8-methoxy-3-{3-[(S)-2-oxo-3-(3-oxo-3,4-dihydro-2H-benzo[1,4]thiazin-6-yl)-oxazolidin-5-yl]-propyl}-1H-quinazoline-2,4-dione], not above 0.016 µg/mL.
As for `O=C1CSc2ccc(N3C[C@H](CCCn4c(=O)c5cccc6c5n(c4=O)CCC6)OC3=O)cc2N1` [Example 44, 2-{3-[(S)-2-oxo-3-(3-oxo-3,4-dihydro-2H-benzo[1,4]thiazin-6-yl)-oxazolidin-5-yl]-propyl}-6,7-dihydro-5H-pyrido[3,2,1-ij]quinazoline-1,3-dione], the figure is not above 0.016 µg/mL.
